Experimental data published in the NIST ThermoML archive (doi:10.1021/je900596d).

Conditions: for mass density: Fluid (supercritical or subcritical phases), Vibrating tube method; for vapor or sublimation pressure: Liquid, Closed cell (Static) method

FC(F)=C(F)C(F)(F)F [hexafluoropropene]
Conditions | mass density [kg/m3]
358.16 K, 1948.8 kPa | 133.66
358.16 K, 1982.5 kPa | 137.05
358.16 K, 2016.7 kPa | 140.6
358.16 K, 2051.6 kPa | 144.28
358.16 K, 2085.7 kPa | 147.98
358.16 K, 2118.7 kPa | 151.7
358.16 K, 2152.9 kPa | 155.54
358.16 K, 2185.6 kPa | 159.34
358.16 K, 2250.5 kPa | 167.24
358.16 K, 2283.4 kPa | 171.42
358.16 K, 2316.3 kPa | 175.71
358.16 K, 2349.2 kPa | 180.05
358.16 K, 2381.8 kPa | 184.6
358.16 K, 2414.3 kPa | 189.16
358.16 K, 2462.8 kPa | 196.45
358.16 K, 2529.2 kPa | 206.94
358.16 K, 2562.6 kPa | 212.61
358.16 K, 2581.2 kPa | 215.74
358.16 K, 2616.7 kPa | 222.24
358.16 K, 2635.2 kPa | 225.67
358.16 K, 2669.9 kPa | 232.45
358.16 K, 2703.7 kPa | 239.44
358.16 K, 2738.3 kPa | 247.03
358.16 K, 2771.6 kPa | 254.87
358.16 K, 2806.3 kPa | 263.68
358.16 K, 2839.2 kPa | 272.73
358.16 K, 2872.4 kPa | 282.77
358.16 K, 2905.9 kPa | 293.88
358.16 K, 2939.1 kPa | 305.79
358.16 K, 2972 kPa | 319.7
358.16 K, 3000.1 kPa | 333.22
358.16 K, 3003 kPa | 334.75
358.16 K, 3005.7 kPa | 336.23
358.16 K, 3008.2 kPa | 337.55
358.16 K, 3010.9 kPa | 338.92
358.16 K, 3013.2 kPa | 340.27
358.16 K, 3015.5 kPa | 341.83
358.16 K, 3017.6 kPa | 343.29
358.16 K, 3019.8 kPa | 344.7
358.16 K, 3022.4 kPa | 346.21
358.16 K, 3025.8 kPa | 348.17
358.16 K, 3027.8 kPa | 349.31
358.16 K, 3031.6 kPa | 351.6
358.16 K, 3035.5 kPa | 354.08
358.16 K, 3037.5 kPa | 355.4
358.16 K, 3041.3 kPa | 357.97
358.16 K, 3045.1 kPa | 360.72
358.16 K, 3047.1 kPa | 362.14
358.16 K, 3050.9 kPa | 364.96
358.16 K, 3054.3 kPa | 367.81
358.16 K, 3057.8 kPa | 370.74
358.16 K, 3061.2 kPa | 373.72
358.16 K, 3064.5 kPa | 376.75
358.16 K, 3067.7 kPa | 379.88
358.16 K, 3071 kPa | 383.12
358.16 K, 3074 kPa | 386.4
358.16 K, 3077 kPa | 389.78
362.9 K, 6.3 kPa | 0.34
362.9 K, 8.4 kPa | 0.44
362.9 K, 10.7 kPa | 0.55
362.9 K, 15.1 kPa | 0.65
362.9 K, 17.2 kPa | 0.88
362.9 K, 20.8 kPa | 1.04
362.9 K, 23 kPa | 1.15
362.9 K, 25.2 kPa | 1.27
362.9 K, 31.8 kPa | 1.53
362.9 K, 34 kPa | 1.65
362.9 K, 37.4 kPa | 1.78
362.9 K, 40.2 kPa | 2
362.9 K, 42.3 kPa | 2.22
362.9 K, 47.8 kPa | 2.29
362.9 K, 57.7 kPa | 2.87
362.9 K, 64.3 kPa | 3.19
362.9 K, 75.1 kPa | 3.75
362.9 K, 81.7 kPa | 4.07
362.9 K, 88 kPa | 4.26
362.9 K, 96.7 kPa | 4.85
362.9 K, 103.1 kPa | 5.2
362.9 K, 109.4 kPa | 5.38
362.9 K, 122.1 kPa | 6.16
362.9 K, 128.4 kPa | 6.44
362.9 K, 134.6 kPa | 6.83
362.9 K, 140.8 kPa | 7.19
362.9 K, 146.9 kPa | 7.41
362.9 K, 153.1 kPa | 7.6
362.9 K, 162.6 kPa | 8.2
362.9 K, 172.6 kPa | 8.83
362.9 K, 183.5 kPa | 9.3
362.9 K, 191.9 kPa | 9.53
362.9 K, 205.9 kPa | 10.23
362.9 K, 217.1 kPa | 10.89
362.9 K, 239.3 kPa | 12.29
362.9 K, 250.5 kPa | 12.86
362.9 K, 261.7 kPa | 13.26
362.9 K, 272.8 kPa | 13.91
362.9 K, 284 kPa | 14.66
362.9 K, 294.9 kPa | 14.96
362.9 K, 305.9 kPa | 15.65
362.9 K, 322.3 kPa | 16.67
362.9 K, 338.5 kPa | 17.36
362.9 K, 354.9 kPa | 18.21
362.9 K, 370.9 kPa | 19.21
362.9 K, 386.8 kPa | 19.93
362.9 K, 402.6 kPa | 20.85
362.9 K, 418.2 kPa | 21.77
362.9 K, 449.3 kPa | 23.6
362.9 K, 485.1 kPa | 25.57
362.9 K, 500.3 kPa | 26.4
362.9 K, 520.6 kPa | 27.39
362.9 K, 540.4 kPa | 28.38
362.9 K, 560.3 kPa | 29.54
362.9 K, 580 kPa | 30.72
362.9 K, 599.7 kPa | 31.79
362.9 K, 619.3 kPa | 32.97
362.9 K, 638.8 kPa | 34.15
362.9 K, 658.1 kPa | 35.19
362.9 K, 677.4 kPa | 36.24
362.9 K, 696.6 kPa | 37.68
362.9 K, 715.6 kPa | 38.68
362.9 K, 753.3 kPa | 40.79
362.9 K, 772.1 kPa | 41.86
362.9 K, 790.7 kPa | 43.17
362.9 K, 809.2 kPa | 44.11
362.9 K, 827.4 kPa | 45.36
362.9 K, 845.6 kPa | 46.55
362.9 K, 863.7 kPa | 47.41
362.9 K, 881.6 kPa | 48.62
362.9 K, 899.5 kPa | 49.68
362.9 K, 917.1 kPa | 50.72
362.9 K, 934.7 kPa | 52.13
362.9 K, 952.2 kPa | 53.09
362.9 K, 969.4 kPa | 54.03

Conditions | vapor or sublimation pressure [kPa]
358.26 K | 3095.1
358.76 K | 3128.1
